One data set addresses T1, soybean lipoxygenase (Glycine max, UniProt P08170).
T1 construct: purchased Sigma Chemical, Co. (St. Louis, MO, USA)
T1 sequence (P08170 1-839): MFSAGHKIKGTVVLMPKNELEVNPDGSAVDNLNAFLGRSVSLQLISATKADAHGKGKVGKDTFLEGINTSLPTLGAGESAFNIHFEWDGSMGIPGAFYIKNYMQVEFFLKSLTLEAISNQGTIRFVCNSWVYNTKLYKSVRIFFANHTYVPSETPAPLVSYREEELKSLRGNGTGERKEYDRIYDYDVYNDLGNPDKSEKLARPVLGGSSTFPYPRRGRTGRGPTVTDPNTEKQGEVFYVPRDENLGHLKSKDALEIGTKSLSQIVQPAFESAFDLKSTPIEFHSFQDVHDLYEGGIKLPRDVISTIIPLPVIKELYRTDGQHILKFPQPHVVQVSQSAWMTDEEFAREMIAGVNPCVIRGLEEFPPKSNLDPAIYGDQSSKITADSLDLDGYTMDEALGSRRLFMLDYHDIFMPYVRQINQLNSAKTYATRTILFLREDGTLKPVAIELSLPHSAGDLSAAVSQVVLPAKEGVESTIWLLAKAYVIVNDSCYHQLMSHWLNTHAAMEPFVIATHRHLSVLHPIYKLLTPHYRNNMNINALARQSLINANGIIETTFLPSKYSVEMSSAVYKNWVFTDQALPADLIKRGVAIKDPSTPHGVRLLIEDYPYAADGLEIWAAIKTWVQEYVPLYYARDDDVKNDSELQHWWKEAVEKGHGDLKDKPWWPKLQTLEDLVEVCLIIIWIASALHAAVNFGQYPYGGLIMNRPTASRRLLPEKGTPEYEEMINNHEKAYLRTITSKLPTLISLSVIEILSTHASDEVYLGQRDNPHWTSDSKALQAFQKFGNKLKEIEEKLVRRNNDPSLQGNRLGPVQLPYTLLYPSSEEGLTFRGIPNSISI
Kind of data set: Soybean lipoxygenase inhibition in vitro. To be noted: for inhibition at 100 µM: read-out: %LOX @ 100μΜ; for %LOX @ 100μΜ: 100 μM compound; for pIC50: read-out: LOX IC50 μΜ. It counts as biochemical. The protocol: 2.2.2.4 Soybean lipoxygenase inhibition study in vitro [14]
In vitro study was evaluated as reported previously. The tested compounds dissolved in ethanol were incubated at room temperature with sodium linoleate (0.1 mM) and 0.2 ml of enzyme solution (1/9 x10^-4 w/v in saline). […] Several concentrations were used for the determination of IC50 values (Table 5).
LO is the key enzyme in leukotriene biosynthesis. Leukotrienes derived from the biotransformation of arachidonic acid catalyzed by 5-lipoxygenase (5-LO), are important inflammatory mediators implicated in several diseases. LOs play a role in membrane lipid peroxidation by forming hydroperoxides in the lipid bilayer. […] Most of the LO inhibitors are antioxidants or free radical scavengers, since lipoxygenation occurs via a carbon-centered radical. The evaluation of the novel coumarin hybrids against soybean lipoxygenase LO was accomplished by the UV-based enzyme assay.

A short description of data set [1]: Inhibition of linoleic acid lipid peroxidation (AAPH). To be noted: 100 μM compound, 37°C. The protocol:
2.2.2.3 Inhibition of linoleic acid lipid peroxidation
Production of conjugated diene hydroperoxide by oxidation of linoleic acid sodium salt in an aqueous solution was monitored at 234 nm. 2,2’-Azobis(2-amidinopropane) dihydrochloride (AAPH) was used as a free radical initiator. 10 μl of the 16 mM linoleic acid sodium salt solution was added to the UV cuvette containing 0.93 ml of 0.05 M phosphate buffer, pH 7.4 prethermostated at 37°C. The oxidation reaction was initiated at 37°C under air by the addition of 50 μl of 40 mM AAPH solution. Oxidation was carried out in the presence of 10 μl of the examined compounds (stock solution in DMSO). In the assay without antioxidant, lipid oxidation was measured in the presence of the same level of DMSO. The rate of oxidation at 37°C was monitored by recording the increase in absorption at 234 nm caused by conjugated diene hydroperoxides (Table 5). Trolox was used as a standard.
Anti-lipid peroxidation activity. The water-soluble azo compound AAPH has been extensively used as a clean and controllable source of thermally produced alkyl peroxyl free radicals, through spontaneous thermal decomposition. […] In the AAPH assay, the highly reactive alkylperoxyl radicals are intercepted mainly by a hydrogen atom transfer (HAT) from the antioxidant.

A short description of data set [2]: Reducing activity of the stable radical DPPH. To be noted: 100 μM compound, after 20 min. On the procedure: 2.2.2.1 Determination of the reducing activity of the stable radical 1, 1-diphenyl-picrylhydrazyl (DPPH)
To a solution of DPPH (100μM) in absolute ethanol an equal volume of the compounds dissolved in ethanol was added. As control solution ethanol was used. The concentration of the solutions of the compounds was 100μM. After 20 and 60 min at room temperature the absorbance was recorded at 517 nm (Table 5). NDGA was used as a standard.
The compounds were studied for their antioxidant activity by the use of the stable 2,2-diphenyl-1-picrylhydrazyl radical (DPPH) at concentration 0.1mM after 20 min. […] This purple colour generally disappears in the presence of an antioxidant. The reduction of absorbance is a measure of the free DPPH due to the action of the antioxidant. The antioxidant activity was expressed as the RA% (Reducing Activity). […] Within the group of derivatives 4 the presence of the morpholinyl or piperidinyl rings at position A as well as the carbonyl group at position B, hinder the interaction of the compounds to the free stable radical DPPH.
For orientation: Loss of DPPH colour is used to gauge radical scavenging.

Data set [3] in a line: Competition of the tested compounds with DMSO for hydroxyl radicals. Particulars: 100 μM compound, Fe3+/ascorbic acid, 30 min, 37°C. On the procedure:
2.2.2.2 Competition of the tested compounds with DMSO for hydroxyl radicals
The hydroxyl radicals generated by the Fe ^3+ /ascorbic acid system, were detected according to Nash, by the determination of formaldehyde produced from the oxidation of DMSO. The reaction mixture contained EDTA (0.1 mM), Fe ^3+ (167 μM), DMSO (33 mM) in phosphate buffer (50 mM, pH 7.4), the tested compounds (concentration 0.1mM) and ascorbic acid (10 mM). After 30 min of incubation (37°C) the reaction was stopped with CCl3COOH (17% w/v) (Table 5). Trolox was used as a standard.
Superoxide (O2^-.) anion and hydroxyl radical (^.OH) are free radical species of potential importance. In the acidic conditions of ischemic brain, O2^-. is probably protonated to give HO2^-. species. Iron released from damaged brain cells is more likely to be readily available to catalyze the generation of OH radicals. Among the ROS, the hydroxyl (^•OH) free radical is possibly the most toxic, as it reacts with a number of biological important molecules. Polyunsaturated fatty acids are found in high concentrations in the CNS, and are particularly vulnerable by free radicals. Thus, we tried to test the ability of our compounds to scavenge hydroxyl radicals. […] All the derivatives of series 13 (except of 13i) present high antioxidant activity (80-100%) which is not able to be correlated with any specific structural characteristic since all contain a coumarin, a purine and an isoxazolyl moiery. […] It seems that the overall molar configuration influences the response. However, antioxidants with hydrophilic or lipophilic character are both needed to act as radical scavengers in the aqueous phase or as chain-breaking antioxidants in biological membranes.

pIC50: −log10 of the molar value. Where “and” joins values, the source holds several entries; their conditions need not be identical. Identical values can stand only once.

Usually melting point stands for the temperature of the solid-liquid transition. `Cc1cc(=O)oc2cc(OCc3cc(Cn4cnc5c(N6CCCCC6)ncnc54)no3)ccc12` showed a melting point of 165 to 167 °C.
Still for that read-out and setting: with `O=c1ccc2ccc(OCC3=NOC(n4cnc5c(N6CCCC6)ncnc54)C3)cc2o1` (stereo not drawn) the figure was 200 to 202 °C.
In the case of `Cc1cc(=O)oc2ccc(OC(=O)C3CC(Cn4cnc5c(N6CCCC6)ncnc54)=NO3)cc12` (stereo not drawn), the melting point is 192 to 193 °C.
For the compound `Cc1cc(=O)oc2ccc(OCC3CC(Cn4cnc5c(N6CCCCC6)ncnc54)=NO3)cc12` (stereo not drawn) [4a, 4-methyl-6-({3-[(6-piperidin-1-yl-9H-purin-9-yl)methyl]-4,5-dihydroisoxazol-5-yl}methoxy)-2H-chromen-2-one], the melting point was in the range of 180 to 182 °C. Besides, the inhibition at 100 µM at soybean lipoxygenase stood at 6%. Moreover, the “LP % @ 100μΜ (inhibition of lipid peroxidation)” value in data set [1] is 63%.
The compound `Cc1cc(=O)oc2cc(OCC3CC(Cn4cnc5c(N6CCOCC6)ncnc54)=NO3)ccc12` (stereo not drawn) [4d] gave a melting point of 194 to 196 °C. In addition, the inhibition at 100 µM at soybean lipoxygenase came out at 44.5%. Further, the “LP % @ 100μΜ (inhibition of lipid peroxidation)” value in data set [1] is 21%.
For `Cc1cc(=O)oc2cc(OCC3CC(Cn4cnc5c(N6CCCC6)ncnc54)=NO3)ccc12` (stereo not drawn) [4e], the melting point lay in the range of 190 to 192 °C. At soybean lipoxygenase, the “%LOX @ 100μΜ” value is “no”. Further, the “LP % @ 100μΜ (inhibition of lipid peroxidation)” value in data set [1] came to 65%.
For the compound `O=c1cc(OCC2CC(Cn3cnc4c(N5CCOCC5)ncnc43)=NO2)c2ccccc2o1` (stereo not drawn) [4g], the melting point is 158 to 160 °C. Further, on soybean lipoxygenase, the “%LOX @ 100μΜ” value is 10% and the inhibition at 100 µM came to 10%. The “LP % @ 100μΜ (inhibition of lipid peroxidation)” value in data set [1] came to 16%.
The term pIC50 denotes the negative decadic logarithm of the IC50, by convention in mol/L. On to `Cc1cc(=O)oc2ccc(OC(=O)C3CC(Cn4cnc5c(N6CCCCC6)ncnc54)=NO3)cc12` (stereo not drawn) [4k, 4-Methyl-2-oxo-2H-chromen-6-yl 3-[(6-piperidin-1-yl-9H-purin-9-yl)methyl]-4,5-Dihydroisoxazole-5-Carboxylate], for which the melting point fell in the range of 179 to 181 °C. On soybean lipoxygenase, the pIC50 is 5.00. Also, the “LP % @ 100μΜ (inhibition of lipid peroxidation)” value in data set [1] stood at 57%. The “RA% @ 100μΜ (reducing activity, DPPH)” value in data set [2] is listed as 12%.
Consider `Cc1cc(=O)oc2ccc(OC(=O)C3CC(Cn4cnc5c(N6CCOCC6)ncnc54)=NO3)cc12` (stereo not drawn) [4l], for which the melting point was 188 to 189 °C. At soybean lipoxygenase, the negative-log IC50 (pIC50) is 4.21. For the same compound, the “LP % @ 100μΜ (inhibition of lipid peroxidation)” value in data set [1] was 37.5%. In addition, the “RA% @ 100μΜ (reducing activity, DPPH)” value in data set [2] amounted to 12%.
The compound `Cc1cc(=O)oc2ccc(OCC3=NOC(Cn4cnc5c(N6CCCCC6)ncnc54)C3)cc12` (stereo not drawn) [11a, 4-methyl-6-({5-[(6-piperidin-1-yl-9H-purin-9-yl)methyl]-4,5-dihydroisoxazol-3-yl}methoxy)-2H-chromen-2-one] returned a melting point of 148 to 150 °C. For the same compound, the “%LOX @ 100μΜ” value on soybean lipoxygenase is recorded as “no”. Also, the “LP % @ 100μΜ (inhibition of lipid peroxidation)” value in data set [1] was found to be 44%.
`O=c1ccc2ccc(OCC3=NOC(Cn4cnc5c(N6CCCCC6)ncnc54)C3)cc2o1` (stereo not drawn) [11g] yielded a melting point of 184 to 185 °C. Further, on soybean lipoxygenase, the “%LOX @ 100μΜ” value was “no”. In addition, the “LP % @ 100μΜ (inhibition of lipid peroxidation)” value in data set [1] is given as “no”.
On to `Cc1cc(=O)oc2cc(OCc3cc(Cn4cnc5c(N6CCOCC6)ncnc54)no3)ccc12` [13d], for which the melting point was in the range of 179 to 180 °C. In addition, the “%LOX @ 100μΜ” value on soybean lipoxygenase is “no”. In addition, the “LP % @ 100μΜ (inhibition of lipid peroxidation)” value in data set [1] is “no”. Further, the “RA% @ 100μΜ (reducing activity, DPPH)” value in data set [2] is “no”.
As to `O=c1ccc2ccc(OCc3cc(Cn4cnc5c(N6CCOCC6)ncnc54)no3)cc2o1` [13f], the melting point was 174 to 175 °C. Further, on soybean lipoxygenase, the inhibition at 100 µM came to 25%. The “LP % @ 100μΜ (inhibition of lipid peroxidation)” value in data set [1] stood at 23%. Besides, in data set [2], the “RA% @ 100μΜ (reducing activity, DPPH)” value is on record as “no”.
For the compound `O=c1ccc2ccc(OCc3cc(Cn4cnc5c(N6CCCC6)ncnc54)no3)cc2o1` [13g], the melting point lay within 176 to 178 °C. Moreover, the pIC50 on soybean lipoxygenase was 4.20 and 4.21. Further, the “LP % @ 100μΜ (inhibition of lipid peroxidation)” value in data set [1] turned out to be 43%. In data set [2], the “RA% @ 100μΜ (reducing activity, DPPH)” value was “no”.
In turn, `O=c1cc(OCc2cc(Cn3cnc4c(N5CCCCC5)ncnc43)no2)c2ccccc2o1` [13h] displayed a melting point of 161 to 163 °C. Moreover, at soybean lipoxygenase, the pIC50 is 4.26. In data set [1], the “LP % @ 100μΜ (inhibition of lipid peroxidation)” value is given as 86%. The “RA% @ 100μΜ (reducing activity, DPPH)” value in data set [2] was “no”.
Compound `O=c1ccc2ccc(OCc3cc(Cn4cnc5c(N6CCCCC6)ncnc54)on3)cc2o1` [15a, 7-({5-[(6-piperidin-1-yl-9H-purin-9-yl)methyl]isoxazol-3-yl}methoxy)-2H-chromen-2-one] gave a melting point of 140 to 142 °C. The pIC50 on soybean lipoxygenase was 4.26. For the same compound, in data set [2], the “RA% @ 100μΜ (reducing activity, DPPH)” value is given as “no”.
For the compound `O=c1ccc2ccc(OCc3cc(Cn4cnc5c(N6CCCC6)ncnc54)on3)cc2o1` [15c], the melting point fell in the range of 172 to 173 °C. In addition, at soybean lipoxygenase, the “%LOX @ 100μΜ” value stood at 9% and the inhibition at 100 µM turned out to be 9%. For the same compound, in data set [1], the “LP % @ 100μΜ (inhibition of lipid peroxidation)” value turned out to be 43%. In addition, the “RA% @ 100μΜ (reducing activity, DPPH)” value in data set [2] was “no”.
Consider `CC(Cc1ccc(O)c(O)c1)C(C)Cc1ccc(O)c(O)c1` (stereo not drawn) [NDGA, nordihydroguairetic acid, reference compound], for which the “RA% @ 100μΜ (reducing activity, DPPH)” value in data set [2] is given as 87%.
Consider `Cc1c(C)c2c(c(C)c1O)CCC(C)(C(=O)O)O2` (stereo not drawn) [Trolox, reference compound], for which the “LP % @ 100μΜ (inhibition of lipid peroxidation)” value in data set [1] was 76%. In addition, in data set [3], the “∙ΟΗ % @ 100μΜ (hydroxyl radical scavenging, percent inhibition of formaldehyde production)” value is recorded as 83%.

(Values after publication PMC5748833, “Synthesis and Biological Evaluation of Novel Hybrid Molecules Containing Purine, Coumarin and Isoxazoline or Isoxazole Moieties” (The Open Medicinal Chemistry Journal, 2017).)
